One block for each molecule: values may come before it. Numbered stars: 1 amine (or outer) side, 2 acyl side, 3 side chain; on linkers, the order of the positions; unused ones are H or OH. Square brackets hold non-standard residues; d marks the D form. Peptide text beside a SMILES is read from it. * marks the point of attachment. ξ: configuration not given here. X1 = O=C(NCCOCCN(CC(=O)[*:2])[*:1])c1ccc(F)cc1; X2 = c1cc2c(cc1CCN*)OCCOCCOCCOCCOCCOCCO2; Thr(3ξ) = CC(O)[C@H](N)C(=O)O; GABA = NCCCC(=O)O; Cam = NC(=O)C*
Assays:
Assay type in all cases: in vitro ADME
trypsin = experiment: Proteolytic stability, incubation with trypsin; conditions: incubation for 24 h with trypsin (FIG. 13)
Procedure: (§1) Proteolytic stability of lasso compounds L1, L2, and L3 in comparison to their branched macrocyclic compounds B1, B2, and B3 and the cyclic peptide analogue C1 (see FIG. 11) was tested in separate experiments by incubation for 24 h with chymotrypsin (FIG. 12), trypsin (FIG. 13) and proteinase K (FIG. 14).

proteinase K = proteinase K (Parengyodontium album, UniProt P06873); experiment: Proteolytic stability, incubation with proteinase K; conditions: incubation for 24 h with proteinase K (FIG. 14)
Procedure: as §1

[1] = Serum stability, incubation with human serum; conditions: incubation for 24 h with human serum (FIG. 16)
Procedure: Serum stability of compounds L1, L2, and L3 in comparison to their branched macrocyclic compounds B1, B2, and B3, the cyclic peptide C1, and the linear C- and N-terminally unmasked derivative R1 (see FIG. 15) was tested by incubation for 24 h with human serum (FIG. 16).

Sequence of proteinase K (P06873 106-384): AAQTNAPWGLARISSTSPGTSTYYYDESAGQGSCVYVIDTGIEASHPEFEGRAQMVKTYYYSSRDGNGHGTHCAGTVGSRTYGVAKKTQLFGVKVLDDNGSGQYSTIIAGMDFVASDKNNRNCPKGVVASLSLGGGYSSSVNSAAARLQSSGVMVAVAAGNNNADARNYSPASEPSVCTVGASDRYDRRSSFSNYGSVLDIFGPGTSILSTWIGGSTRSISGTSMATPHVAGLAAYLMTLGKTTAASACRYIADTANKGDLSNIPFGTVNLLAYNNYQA

SMILES: CC(C)C[C@@H]1NC(=O)[C@H](C(C)O)NC(=O)[C@H](CCCCN)NC(=O)[C@@H](Cc2c[nH]c3ccccc23)NC(=O)[C@H](Cc2ccccc2)NC(=O)[C@H](CSCC(N)=O)NC(=O)CNC(=O)[C@H](Cc2ccccc2)NC(=O)CCCNC1=O (stereo partly shown) [C1] (cyclo(C(Cam)F[dW]K[Thr(3ξ)]L[GABA]FG))
- stability versus trypsin degradation (trypsin): similarly stable as L1-L3
- stability versus proteinase K degradation (proteinase K): similarly stable as L1-L3

- remaining at 24 h ([1]; read-out: remaining compound at the final time point): ~70%
SMILES: CC(C)C[C@H](NC(=O)[C@@H](NC(=O)[C@H](CCCCN)NC(=O)[C@@H](Cc1c[nH]c2ccccc12)NC(=O)[C@H](Cc1ccccc1)NC(=O)[C@H](CSCC(N)=O)NC(=O)CNC(=O)[C@H](Cc1ccccc1)NC(=O)CNCCOCCNC(=O)c1ccc(F)cc1)[C@@H](C)O)C(=O)NCCCC(=O)NCCc1ccc2c(c1)OCCOCCOCCOCCOCCOCCO2 [L1] (H-[X1]FGC(Cam)F[dW]KTL[GABA]-X2)

- degradation in human serum (in words) [1]: degraded rapidly and completely
SMILES: CC(C)C[C@H](NC(=O)[C@@H](NC(=O)[C@H](CCCCN)NC(=O)[C@@H](Cc1c[nH]c2ccccc12)NC(=O)[C@H](Cc1ccccc1)NC(=O)[C@H](CSCC(N)=O)NC(=O)CNC(=O)[C@@H](N)Cc1ccccc1)[C@@H](C)O)C(=O)O [R1] (H-FGC(Cam)F[dW]KTL-OH)
